Experimental data from the supplement of paper PMC6045584.

Columns and labels:
Test in all cases: area under dose-response curve of surviving fraction (unscaled, Aref=0) (surviving fraction x log10(nM)); higher = more resistant
Settings in all cases: exposure time: 5 days; dose range 0.5-1000 nM
[1] = compound: CCn1c(C(=O)N(C2CC2)C2CC2)cc2c3c(ncn3C)c(Nc3cc(C)n(C)n3)nc21
Summary of the method: (§1)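 Inhibitor was applied to tumour cell lines at eight concentrations (0.5 to 1000 nM) for five days in 384-well plates. Luminescence from CellTiter-Glo, scaled to DMSO-only wells, gave surviving fractions in three screens per line, and these were fitted by 3-parameter logistic regression with the drc R package. The area under the curve is an unscaled activity area. Aref was 0, and dose was on a log10 scale.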

SOTRASTAURIN/AEB071 = compound: CN1CCN(c2nc(C3=C(c4c[nH]c5ccccc45)C(=O)NC3=O)c3ccccc3n2)CC1 [SOTRASTAURIN/AEB071]
Summary of the method: as §1

SORAFENIB = compound: CNC(=O)c1cc(Oc2ccc(NC(=O)Nc3ccc(Cl)c(C(F)(F)F)c3)cc2)ccn1 [SORAFENIB]
Summary of the method: as §1

[2] = compound: CNCc1ccc(-c2[nH]c3cc(F)cc4c3c2CCNC4=O)cc1
Summary of the method: as §1

FORETINIB = compound: COc1cc2c(Oc3ccc(NC(=O)C4(C(=O)Nc5ccc(F)cc5)CC4)cc3F)ccnc2cc1OCCCN1CCOCC1 [FORETINIB]
Summary of the method: as §1

[3] = compound: COc1cc2ncnc(Nc3ccc(F)c(Cl)c3)c2cc1NC(=O)/C=C/CN1CCCCC1
Summary of the method: as §1

CRIZOTINIB = compound: C[C@@H](Oc1cc(-c2cnn(C3CCNCC3)c2)cnc1N)c1c(Cl)ccc(F)c1Cl [CRIZOTINIB]
Summary of the method: as §1

[4] = compound: C[C@@H](Oc1cc(-c2cnn(C3CCNCC3)c2)cnc1N)c1c(Cl)ccc(F)c1Cl
Summary of the method: as §1

ABIRATERONE = compound: C[C@]12CC[C@H](O)CC1=CC[C@@H]1[C@@H]2CC[C@]2(C)C(c3cccnc3)=CC[C@@H]12 [ABIRATERONE]
Summary of the method: as §1

DASATINIB = compound: Cc1nc(Nc2ncc(C(=O)Nc3c(C)cccc3Cl)s2)cc(N2CCN(CCO)CC2)n1 [DASATINIB]
Summary of the method: as §1

TEMOZOLOMIDE = compound: Cn1nnc2c(C(N)=O)ncn2c1=O [TEMOZOLOMIDE]
Summary of the method: as §1

XAV-939 = compound: Oc1nc(-c2ccc(C(F)(F)F)cc2)nc2c1CSCC2 [XAV-939]
Summary of the method: as §1

MLN-4924 = compound: NS(=O)(=O)OC[C@@H]1C[C@@H](n2ccc3c(N[C@H]4CCc5ccccc54)ncnc32)C[C@@H]1O [MLN-4924]
Summary of the method: as §1

OLAPARIB = compound: O=C(c1cc(Cc2n[nH]c(=O)c3ccccc23)ccc1F)N1CCN(C(=O)C2CC2)CC1 [OLAPARIB]
Summary of the method: as §1

Test System	area under dose-response curve [1]	area under dose-response curve (SOTRASTAURIN/AEB071)	area under dose-response curve (SORAFENIB)	area under dose-response curve [2]	area under dose-response curve (FORETINIB)	area under dose-response curve [3]	area under dose-response curve (CRIZOTINIB)	area under dose-response curve [4]	area under dose-response curve (ABIRATERONE)	area under dose-response curve (DASATINIB)	area under dose-response curve (TEMOZOLOMIDE)	area under dose-response curve (XAV-939)	area under dose-response curve (MLN-4924)	area under dose-response curve (OLAPARIB)
CHLA90 AUTONOMIC GANGLIA	3.14	3.28	3.78	3.28	3	2.74	3.12	2.61	3.47	2.41	3.2	3.24	–	–
HCC1954 BREAST	2.83	2.92	3.17	2.54	–	1.98	–	1.37	–	0.867	3.75	3.2	2.34	3.08
MDAMB468 BREAST	3.4	3.12	3.82	2.75	–	2.43	3.08	3.05	3.46	2.57	3.67	–	2.17	2.89
NOS1 BONE	3.62	3.36	3.01	2.83	2.58	2.84	3.87	3.13	3.87	1.42	3.67	–	–	2.8
SUM44 BREAST	3.39	–	3.43	3.09	3.91	3.24	–	3.1	3.4	3.11	4.14	3.52	–	3.02
HCT15 LARGE INTESTINE	3.26	3.44	3.39	3.36	2.87	–	3.26	3.17	3.64	2.15	3.41	3.27	2.78	–
HU09 BONE	3.49	–	2.68	3.06	2.28	3.08	3.03	2.79	3.7	1.76	3.28	–	2.59	–
HCC1395 BREAST	3.71	3.61	3.88	2.92	–	3.19	4.21	3.01	3.7	2.59	3.46	2.87	3.56	3.21
SG31 HEADNECK	–	–	3.79	3.16	–	2.06	–	2.66	3.4	1.99	3.5	3.04	2.42	3.18
SKBR3 BREAST	3.41	3.01	3.35	2.69	–	1.36	–	2.88	3.53	2.96	3.54	–	2.05	3.09
ASKA SYNOVIAL	3.49	3.57	3.67	2.86	2.97	–	2.02	1.91	3.92	3.09	3.76	3.73	2.57	–
SG28 HEADNECK	3.25	–	4.1	–	–	1.87	–	–	3.46	–	–	3.21	–	–
SCC003 HEADNECK	–	3.42	3.6	3.45	3.21	2.29	–	3.05	3.79	2.38	3.57	–	3.02	3.28
SIHA CERVIX	3.23	–	3.73	3.29	3.11	–	–	3.14	3.9	2.35	3.34	3.55	2.59	–
RDES SOFT TISSUE	4.17	3.42	3.76	3.42	2.73	–	–	2.6	4.04	2.92	3.9	4	2.44	3.41
VP229 BREAST	3.59	–	3.66	3.13	–	1.74	–	3.2	3.53	1.98	3.86	4.36	2.74	–
143B BONE	3.44	–	3.46	–	–	3.27	–	3.2	3.51	–	–	–	–	3.36
SAOS2 BONE	3.41	3.08	–	2.96	3.04	3.15	–	2.88	3.89	1.69	3.9	3.94	1.97	2.98
C33A CERVIX	3.14	3.68	3.69	3.29	3.09	2.14	3.26	3.07	–	1.29	3.18	3.08	2.13	–
HUO3N1 BONE	–	3.24	3.13	3.19	2.9	3.17	–	3.14	3.47	1.45	3.36	–	3.13	3.21
ZR751 BREAST	2.89	3.67	3.69	3.07	–	2.6	–	2.77	–	2.99	3.24	2.68	–	3.57
BT549 BREAST	3.29	3.27	3.65	3	3.09	3.07	3.2	3.16	–	1.74	3.71	–	2.41	2.76
PCI30 HEADNECK	3.14	3.42	–	3.14	3.16	1.71	–	3.12	3.58	2.63	3.28	–	2.6	3.15
